Source: patent publication US10738028B2, “Spiro three-membered ring, spiro five-membered ring peptide deformylase inhibitor and use thereof in antibacteria and anti-tumor” (priority 2016, dated 2020)

What was measured:
Assay type in all cases: cell-based
[1] = test system: methicillin-resistant Staphylococcus aureus (MRSA); experiment: MIC, two-fold agar dilution (CLSI), clinical isolates
Summary of the method: (§1)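 Following the American Clinical and Laboratory Standards Institute procedure, agar two-fold dilution served to determine minimum inhibitory concentrations.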

[2] = test system: methicillin-sensitive Staphylococcus aureus (MSSA); experiment: as above
Summary of the method: as §1

[3] = test system: methicillin-sensitive Staphylococcus epidermidis (MSSE); experiment: as above
Summary of the method: as §1

[4] = test system: Enterococcus faecalis (EFA); experiment: as above
Summary of the method: as §1

[5] = test system: Moraxella catarrhalis (BCA); experiment: as above
Summary of the method: as §1

[6] = test system: Streptococcus pneoumoniae (SPN); experiment: as above
Summary of the method: as §1

[7] = test system: methicillin-resistant Staphylococcus epidermidis (MRSE); experiment: as above
Summary of the method: as §1

[8] = test system: Escherichia coli (including ESBLs, non-ESBLs); experiment: as above
Summary of the method: as §1

[9] = test system: Enterococcus faecium (EFM); experiment: as above
Summary of the method: as §1

[10] = test system: HCT-116 colorectal cancer cell line; experiment: CCK-8 proliferation inhibition; settings: Homo sapiens, HCT-116, 72 h, concentration of 30 μM; 72 hours; CCK-8; read-out: HCT116 inhibition rate/%
Summary of the method: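 Cells were plated overnight at 2000 cells/well, then compound in culture medium was added at a range of final concentrations. After 72 hours in a CO2 incubator, medium was replaced with 1:10 CCK-8 solution for the read-out.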

Structure (SMILES): O=C(C[C@@H](CC1CCCC1)C(=O)N1CC2(CC2)C[C@H]1C(=O)Nc1ncco1)NO [Example 69]
- Anti-bacterial activity (MIC), strain MRSA 15-1 ([1]; clinical isolate MRSA 15-1): 2 µg/mL
- Anti-bacterial activity (MIC), strain MRSA 15-2 ([1]; clinical isolate MRSA 15-2): 8 µg/mL
- Anti-bacterial activity (MIC), strain MRSA 15-3 ([1]; clinical isolate MRSA 15-3): 2 µg/mL
- Anti-bacterial activity (MIC), strain MRSA 15-4 ([1]; clinical isolate MRSA 15-4): 8 µg/mL
- Anti-bacterial activity (MIC), strain MSSA 15-3 ([2]; clinical isolate MSSA 15-3): 8 µg/mL
- Anti-bacterial activity (MIC), strain MSSA 15-4 ([2]; clinical isolate MSSA 15-4): 2 µg/mL
- Anti-bacterial activity (MIC), strain MSSA 15-5 ([2]; clinical isolate MSSA 15-5): 2 µg/mL
- Anti-bacterial activity (MIC), strain MSSA 15-6 ([2]; clinical isolate MSSA 15-6): > 32 µg/mL
- Anti-bacterial activity (MIC), strain MSSE 15-3 ([3]; clinical isolate MSSE 15-3): 1 µg/mL
- Anti-bacterial activity (MIC), strain MSSE 15-4 ([3]; clinical isolate MSSE 15-4): 8 µg/mL
- Anti-bacterial activity (MIC), strain MSSE 15-5 ([3]; clinical isolate MSSE 15-5): 8 µg/mL
- Anti-bacterial activity (MIC), strain MSSE 15-6 ([3]; clinical isolate MSSE 15-6): 2 µg/mL
- Anti-bacterial activity (MIC) ([4]; strain EFA 15-1): > 32 µg/mL
- Anti-bacterial activity (MIC) ([4]; strain EFA 15-2): > 32 µg/mL
- Anti-bacterial activity (MIC) ([4]; strain EFA 15-3): > 32 µg/mL
- Anti-bacterial activity (MIC) ([4]; strain EFA 15-4): > 32 µg/mL
- Anti-bacterial activity (MIC) ([4]; strain EFA 15-5): > 32 µg/mL
- Anti-bacterial activity (MIC) ([4]; strain EFA 15-6): > 32 µg/mL
- Anti-bacterial activity (MIC) ([4]; strain EFA 15-9): > 32 µg/mL
- Anti-bacterial activity (MIC) ([5]; strain BCA 14-1): > 32 µg/mL
- Anti-bacterial activity (MIC) ([5]; strain BCA 14-4): > 32 µg/mL
- Anti-bacterial activity (MIC) ([5]; strain BCA 14-5): 8 µg/mL
- Anti-bacterial activity (MIC) ([5]; strain BCA 14-6): > 32 µg/mL
- Anti-bacterial activity (MIC) ([5]; strain BCA 14-7): > 32 µg/mL
- Anti-bacterial activity (MIC) ([5]; strain BCA 14-8): > 32 µg/mL
- Anti-bacterial activity (MIC) ([5]; strain BCA 14-10): 4 µg/mL
- Anti-bacterial activity (MIC) ([6]; strain SPN 16-2): 2 µg/mL
- Anti-bacterial activity (MIC) ([6]; strain SPN 16-4): 1 µg/mL
- Anti-bacterial activity (MIC), strain MRSE 15-1 ([7]; clinical isolate MRSE 15-1): 8 µg/mL
- Anti-bacterial activity (MIC), strain MRSE 15-2 ([7]; clinical isolate MRSE 15-2): 8 µg/mL
- Anti-bacterial activity (MIC), strain MRSE 15-3 ([7]; clinical isolate MRSE 15-3): 8 µg/mL
- Anti-bacterial activity (MIC), strain MRSE 15-7 ([7]; clinical isolate MRSE 15-7): 8 µg/mL
- Anti-bacterial activity (MIC), strain ECO+ 15-1 ([8]; clinical isolate ECO+ 15-1): 32 µg/mL
- Anti-bacterial activity (MIC), strain ECO+ 15-2 ([8]; clinical isolate ECO+ 15-2): 32 µg/mL
- Anti-bacterial activity (MIC), strain ECO+ 15-3 ([8]; clinical isolate ECO+ 15-3): 32 µg/mL
- Anti-bacterial activity (MIC), strain ECO+ 15-4 ([8]; clinical isolate ECO+ 15-4): > 32 µg/mL
- Anti-bacterial activity (MIC), strain ECO− 15-1 ([8]; clinical isolate ECO− 15-1): 32 µg/mL
- Anti-bacterial activity (MIC), strain ECO− 15-2 ([8]; clinical isolate ECO− 15-2): 32 µg/mL
- Anti-bacterial activity (MIC), strain ECO− 15-3 ([8]; clinical isolate ECO− 15-3): 32 µg/mL
- Anti-bacterial activity (MIC), strain ECO− 15-4 ([8]; clinical isolate ECO− 15-4): 32 µg/mL
- Anti-bacterial activity (MIC) ([9]; strain EFM 15-1): > 32 µg/mL
- Anti-bacterial activity (MIC) ([9]; strain EFM 15-2): > 32 µg/mL
- Anti-bacterial activity (MIC) ([9]; strain EFM 15-3): > 32 µg/mL
- Anti-bacterial activity (MIC) ([9]; strain EFM 15-4): > 32 µg/mL
- Anti-bacterial activity (MIC) ([9]; strain EFM 15-5): 8 µg/mL
- Anti-bacterial activity (MIC) ([9]; strain EFM 15-6): 8 µg/mL
- inhibition at 30 µM [10]: 15%
